These results are taken from US12668586B2, “AhR inhibitor, use thereof, and preparation method therefor” (CHONGQING PHARSCIN INNOBIO CO., LTD., priority 2021, dated 2026).

The assay concerns the target T1, AhR (Homo sapiens, UniProt P35869).
T1 sequence (P35869 11-848): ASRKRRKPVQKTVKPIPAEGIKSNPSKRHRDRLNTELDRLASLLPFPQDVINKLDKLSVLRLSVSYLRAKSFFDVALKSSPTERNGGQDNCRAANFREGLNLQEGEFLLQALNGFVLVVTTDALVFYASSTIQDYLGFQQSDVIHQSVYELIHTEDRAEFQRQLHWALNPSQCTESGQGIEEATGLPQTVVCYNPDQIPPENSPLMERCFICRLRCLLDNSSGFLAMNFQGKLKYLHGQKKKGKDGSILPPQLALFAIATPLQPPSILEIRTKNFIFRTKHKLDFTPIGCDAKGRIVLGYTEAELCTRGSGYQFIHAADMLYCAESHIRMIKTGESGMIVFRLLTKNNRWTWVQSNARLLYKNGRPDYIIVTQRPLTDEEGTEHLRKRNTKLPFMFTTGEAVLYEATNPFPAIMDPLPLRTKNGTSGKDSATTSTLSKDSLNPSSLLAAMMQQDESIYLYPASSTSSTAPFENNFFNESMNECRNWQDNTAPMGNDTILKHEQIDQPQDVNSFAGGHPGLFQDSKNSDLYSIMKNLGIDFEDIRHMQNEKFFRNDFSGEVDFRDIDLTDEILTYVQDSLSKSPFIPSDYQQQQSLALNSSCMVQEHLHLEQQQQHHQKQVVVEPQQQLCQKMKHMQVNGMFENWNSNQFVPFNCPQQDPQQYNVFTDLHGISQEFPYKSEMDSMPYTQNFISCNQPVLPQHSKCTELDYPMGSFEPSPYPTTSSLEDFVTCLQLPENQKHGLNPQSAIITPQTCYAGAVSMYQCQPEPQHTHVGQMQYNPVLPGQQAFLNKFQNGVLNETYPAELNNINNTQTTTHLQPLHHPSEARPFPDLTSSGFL
As to the kind of experiment: AhR inhibitory activity experiment, in vitro assay 1: HepG2-Lucia AhR cells, Lucia luciferase reporter (QUANTI-Luc). Type of assay: cell-based. Particulars: 24 hours incubation at 37° C., Lucia luciferase in supernatant, read-out: AhR inhibitory activity C50. How it is done:
Test Example: AhR Inhibitory Activity Experiment
When QUANTI-Luc™ (InvivoGen Company) testing reagents are used, AhR gene signaling pathways can be studied by monitoring the activity of Lucia luciferase in the cell culture supernatant.
In Vitro Assay 1: Assay on Inhibitory Activity in Human Cell Lines
Adherent cell layers of HepG2-Lucia™ AhR cells in a logarithmic growth phase were washed with PBS, and then the cells were isolated with trypsin. The isolated cells were centrifuged at 1000 RPM for 5 minutes, the supernatant was removed, and the cells were re-suspended with a test medium by 1.25×10^5 cells/ml.
20,000 cells were added to each well of a 96-well plate, and the 96-well plate was placed in a CO2 incubator to incubate the cells at 37° C. for 24 hours in the absence (negative control) or presence of test compounds with gradient increasing concentrations (typical dilutions: 169 pmol/L, 0.5 nmol/L, 1.5 nmol/L; 4.6 nmol/L, 13.7 nmol/L, 41 nmol/L, 123 nmol/L, 370 nmol/L, 1.1 μmol/L, 3.3 μmol/L and 10 μmol/L, in triplicate).
The 20 μl/well cell supernatant was transferred to a black 96-well plate, a 50 μL/well QUANTI-Luc™ solution was added, and the activity of Lucia luciferase was measured on a multifunctional ELISA reader Spark 10 M (Tecan Company) through a QUANTI-Luc™ luciferase assay system.
Experimental results are shown in Table 1, wherein for IC50 values, “++++” represents IC50<0.05 μM; “+++” represents IC50 between 0.05 μM and 0.2 μM; “++” represents IC50 between 0.2 μM and 1.0 μM; and “+” represents IC50>1.0 μM.
Consider `C[C@H](NC(=O)c1cc(-c2ccnc(F)c2)nc(-c2cnn(C)c2)n1)c1ccnc(F)c1` [Compound 49, (S)-6-(2-fluoro-4-pyridine)-N-(1-(2-fluoro-4-pyridine)ethyl)-2-(1-methyl-1H-pyrazol-4-yl)pyrimidine-4-formamide], for which the IC50 is greater than 1000 nM.
The value for `Cn1cc(-c2nc(C(=O)N[C@H]3CCc4ncccc43)cc(-c3ccc(Cl)cc3)n2)cn1` [Compound 2, (S)-6-(4-chlorophenyl)-N-((S)-6,7-dihydro-5H-cyclopentano[B]pyridin-5-yl)-2-(1-methyl-1H-pyrazol-4-yl)pyrimidine-4-formamide] was less than 50 nM.
As for `O=C(N[C@H]1CCc2ncccc21)c1cc(-c2ccc(C(F)(F)F)cc2)nc(-c2cccnc2)n1` [Compound 55, (S)-6-(4-trifluoromethylphenyl)-N-((S)-6,7-dihydro-5H-cyclopentano[B]pyridin-5-yl)-2-(pyridin-3-yl)pyrimidine-4-formamide], the IC50 was less than 50 nM.
For `C[C@H](NC(=O)c1cc(-c2ccc(Cl)cc2)nc(-c2cnn(C)c2)n1)c1ccnc(C(F)(F)F)c1` [Compound 5, (S)-6-(4-chlorophenyl)-N-(1-(2-trifluoromethyl-4-pyridine)ethyl)-2-(1-methyl-1H-pyrazol-4-yl)pyrimidine-4-formamide], the IC50 was less than 50 nM.
The value for `O=C(N[C@H]1CCc2ncccc21)c1cc(-c2ccc(OC(F)(F)F)cc2)nc(-c2cccnc2)n1` [Compound 27, (S)-6-(4-trifluoromethoxyphenyl)-N-((S)-6,7-dihydro-5H-cyclopentano[B]pyridin-5-yl)-2-(3-pyridyl)pyrimidine-4-formamide] was less than 50 nM; that for `C[C@H](NC(=O)c1cc(-c2ccc(Cl)cc2)nc(-c2ccnc(F)c2)n1)c1ccnc(F)c1` [Compound 38, (S)-6-(4-chlorophenyl)-N-(1-(2-fluoro-4-pyridine)ethyl)-2-(2-fluoropyridin-4-yl)pyrimidine-4-formamide] was less than 50 nM; that for `C[C@H](NC(=O)c1cc(-c2ccc(C(F)(F)F)cc2)nc(-c2cnn(C)c2)n1)c1ccnc(F)c1` [Compound 33, (S)-6-(4-trifluoromethylphenyl)-N-(1-(2-fluoro-4-pyridine)ethyl)-2-(1-methyl-1H-pyrazol-4-yl)pyrimidine-4-formamide] was less than 50 nM.
Next, `C[C@H](NC(=O)c1cc(-c2ccc(F)cc2)nc(-c2cnn(C)c2)n1)c1ccnc(F)c1` [Compound 47, (S)-6-(4-fluorophenyl)-N-(1-(2-fluoro-4-pyridine)ethyl)-2-(1-methylpyrazol-4-yl)pyrimidine-4-formamide]: 50 to 200 nM.
Next, `C[C@H](NC(=O)c1cc(-c2ccc(C(F)(F)F)cc2)nc(-c2cnn(C)c2)n1)c1ccc(F)c(F)c1` [Compound 32, (S)-6-(4-trifluoromethylphenyl)-N-(1-(3,4-difluorophenyl)ethyl)-2-(1-methyl-1H-pyrazol-4-yl)pyrimidine-4-formamide]: less than 50 nM; `C[C@H](NC(=O)c1cc(-c2ccc(Cl)cc2)nc(-c2cnn(C)c2)n1)c1cnn(C)c1` [Compound 14, (S)-6-(4-chlorophenyl)-N-(1-(1-methyl-1H-pyrazol-4-yl)ethyl)-2-(1-methyl-1H-pyrazol-4-yl)pyrimidine-4-formamide]: less than 50 nM; `C[C@H](NC(=O)c1cc(-c2ccc(OC(F)(F)F)cc2)nc(-c2cnn(C)c2)n1)c1ccnc(F)c1` [Compound 34, (S)-6-(4-trifluoromethoxyphenyl)-N-(1-(2-fluoro-4-pyridine)ethyl)-2-(1-methyl-1H-pyrazol-4-yl)pyrimidine-4-formamide]: less than 50 nM.
Regarding `COc1ccc([C@H](C)NC(=O)c2cc(-c3ccc(Cl)cc3)nc(-c3cnn(C)c3)n2)cc1Cl` [Compound 29, (S)-6-(4-chlorophenyl)-N-(1-(3-chloro-4-methoxyphenyl)ethyl)-2-(1-methyl-1H-pyrazol-4-yl)pyrimidine-4-formamide], the IC50 was less than 50 nM.
Regarding `CC[C@H](NC(=O)c1cc(-c2ccc(Cl)cc2)nc(-c2cnn(C)c2)n1)c1ccc(F)cc1` [Compound 18, (S)-6-(4-chlorophenyl)-N-(1-(4-fluorophenyl)n-propyl)-2-(1-methyl-1H-pyrazol-4-yl)pyrimidine-4-formamide], the IC50 was less than 50 nM.
Consider `COc1cc([C@H](C)NC(=O)c2cc(-c3ccc(Cl)cc3)nc(-c3cnn(C)c3)n2)ccc1F` [Compound 30, (S)-6-(4-chlorophenyl)-N-(1-(3-methoxy-4-fluorophenyl)ethyl)-2-(1-methyl-1H-pyrazol-4-yl)pyrimidine-4-formamide], for which the IC50 is less than 50 nM.
The value for `Cn1cc(-c2nc(C(=O)NC3(c4ccc(F)c(F)c4)CC3)cc(-c3ccc(Cl)cc3)n2)cn1` [Compound 7, (S)-6-(4-chlorophenyl)-N-(1-(3,4-difluorophenyl)cyclopropyl)-2-(1-methyl-1H-pyrazol-4-yl)pyrimidine-4-formamide] was less than 50 nM; that for `C[C@H](NC(=O)c1cc(-c2ccc(Cl)cc2)nc(-c2cnn(C3CC3)c2)n1)c1ccnc(F)c1` [Compound 39, (S)-6-(4-chlorophenyl)-N-(1-(2-fluoro-4-pyridine)ethyl)-2-(1-cyclopropylpyrazol-4-yl)pyrimidine-4-formamide] was greater than 1000 nM.
As for `Cn1cc(-c2nc(C(=O)N[C@H]3CCc4ncccc43)cc(-c3ccc(OC(F)(F)F)cc3)n2)cn1` [Compound 61, (S)-6-(4-trifluoromethoxyphenyl)-N-((S)-6,7-dihydro-5H-cyclopentano[B]pyridin-5-yl)-2-(1-methyl-1H-pyrazol-4-yl)pyrimidine-4-formamide], the IC50 is greater than 1000 nM.
Next, `C[C@H](NC(=O)c1cc(-c2ccc(Cl)cc2)nc(-c2ccc(C#N)cc2)n1)c1ccnc(F)c1` [Compound 60, (S)-6-(4-chlorophenyl)-N-(1-(2-fluoro-4-pyridine)ethyl)-2-(p-cyanophenyl)pyrimidine-4-formamide]: greater than 1000 nM; `Cn1cc(-c2nc(C(=O)NC3(C)CCN(CC#N)CC3)cc(-c3ccc(Cl)cc3)n2)cn1` [Compound 46, 6-(4-chlorophenyl)-N-(1-(cyanomethyl)-4-methylpiperidin-4-yl)-2-(1-methyl-1H-pyrazol-4-yl)pyrimidine-4-formamide]: less than 50 nM.
Consider `Cc1noc(C)c1-c1nc(C(=O)N[C@@H](C)c2ccnc(F)c2)cc(-c2ccc(Cl)cc2)n1` [Compound 59, (S)-6-(4-chlorophenyl)-N-(1-(2-fluoro-4-pyridine)ethyl)-2-(3,5-dimethylisoxazol-4-yl)pyrimidine-4-formamide], for which the IC50 was greater than 1000 nM.
For `Cn1cc(-c2nc(C(=O)N[C@H]3CCCc4ncccc43)cc(-c3ccc(Cl)cc3)n2)cn1` [Compound 23, (S)-6-(4-chlorophenyl)-N-((S)-5,6,7,8-tetrahydro-6H-quinol-5-yl)-2-(1-methyl-1H-pyrazol-4-yl)pyrimidine-4-formamide], the IC50 was less than 50 nM.
Next, `CC(=O)Nc1ccc([C@H](C)NC(=O)c2cc(-c3ccc(Cl)cc3)nc(-c3cnn(C)c3)n2)cc1F` [Compound 53]: less than 50 nM.
The value for `C[C@H](NC(=O)c1cc(-c2ccc(Cl)cc2)nc(-c2cnn(C)c2)n1)c1ccc(F)c(C#N)c1` [Compound 40, (S)-6-(4-chlorophenyl)-N-(1-(3-cyano-4-fluorophenyl)ethyl)-2-(1-methyl-1H-pyrazol-4-yl)pyrimidine-4-formamide] was less than 50 nM.
